Test results: patent US20150329537A2, “CDK9 INHIBITORS IN THE TREATMENT OF MIDLINE CARCINOMA” (LEADDISCOVERY CENTER GMBH, priority 2011, published 2015)

Experiments:
[1] = test system: Brd4-Nut mutated cell lines (HCC2429, TY-82, 690100, 143100); assay: Proliferation assay on Brd4-Nut mutated versus wild type cell lines; type: cell-based; details: mutated: HCC2429, TY-82, 690100, 143100; wild type: Hela, HCC366, H460, HCC1143, hPBMCs; FIG. 4
Method: The proliferation results are presented as IC50 in μM. First, the anti-proliferative effect of CDK9 inhibitors is much more pronounced on BrdNut mutated cell lines (=sensitive cell lines).
Cell lines were maintained in RPMI 1640 cell culture medium+glutamine (PAN Biotech GmbH, Aidenbach, Germany; order no. P04-22100; P04-05500) supplemented with 10% fetal calf serum “Gold” (PAA Laboratories GmbH, Pasching, Austria; order no. A15-151) and grown in a humidified atmosphere at 37° C., 5% C02. As a first step, an optimal cell density for each cell line was determined to guarantee linearity. For viability assays with compounds, cells were then seeded at a density of 200 to 1000 per well in 25 μl in 384-well plates (Greiner Bio-One, Frickenhausen, Germany; order no. 781080). After overnight incubation at 37° C./5% CO2, 25 nl or 75 nl compounds were added to each sample well by using BIOMEK FX^P Laboratory Automation Workstation (Beckman Coulter, USA). Wells with cells and 0.1% or 0.3% DMSO in culture medium were used as positive controls, wells with cells and 10 μM staurosporine (Selleck Chemicals, Huston, USA) in culture medium were used as negative controls. […] Luminescence was measured by Envision Plate Reader (Perkin Elmer, USA). […]

[2] = test system: HCC2429 cells; assay: Proliferation / cell viability assay (Cell Titer Glo); type: cell-based; details: FIG. 1; for effect on proliferation of HCC2429 cells (in words): dose response experiments
Method: Proliferation assays were performed as described below under materials and methods. […] (Cpd B1 and Ro-3306) were applied at concentrations between 30 and 0.0137 μM. After 72 h incubation with compounds ATP content/proliferation was determined employing CTG (Promega). Relative proliferation values (compared to vehicle control) were used to calculate IC50 values (Excel fit; algorithm #205). IC50s of the respective compound (Y-axis; logarithmic scale) on proliferation of various cell lines (X-axis) are depicted in black bars. White bars indicate that an IC50 could not be determined due to too low activity and therefore was higher than the highest applied concentration in the assays (30 μM). IC50s of compounds on CDK9 inhibitor sensitive cell line HCC2429 are presented in grey bars.
Cell lines were maintained in RPMI 1640 cell culture medium+glutamine (PAN Biotech GmbH, Aidenbach, Germany; order no. P04-22100; P04-05500) supplemented with 10% fetal calf serum “Gold” (PAA Laboratories GmbH, Pasching, Austria; order no. A15-151) and grown in a humidified atmosphere at 37° C., 5% C02. As a first step, an optimal cell density for each cell line was determined to guarantee linearity. For viability assays with compounds, cells were then seeded at a density of 200 to 1000 per well in 25 μl in 384-well plates (Greiner Bio-One, Frickenhausen, Germany; order no. 781080). After overnight incubation at 37° C./5% CO2, 25 nl or 75 nl compounds were added to each sample well by using BIOMEK FX^P Laboratory Automation Workstation (Beckman Coulter, USA). Wells with cells and 0.1% or 0.3% DMSO in culture medium were used as positive controls, wells with cells and 10 μM staurosporine (Selleck Chemicals, Huston, USA) in culture medium were used as negative controls. Upon incubation with compounds for 72 h at 37° C./5% CO2 25 μl Cell Titer Glo reagent (Promega, Madison, USA, order no. G7573; 1:2 diluted with cell culture medium) was added to each well to determine cell viability. […] Luminescence was measured by Envision Plate Reader (Perkin Elmer, USA). […]

[3] = biological target: T1, CDK9/CycT (Homo sapiens, UniProt P50750); assay: Radiometric protein kinase assay (33PanQinase Activity Assay); type: biochemical; details: 10 μM compound, compared to vehicle control, 23 different kinases, FIG. 3
T1 construct: purchased ProQinase
T1 sequence (P50750 whole entry): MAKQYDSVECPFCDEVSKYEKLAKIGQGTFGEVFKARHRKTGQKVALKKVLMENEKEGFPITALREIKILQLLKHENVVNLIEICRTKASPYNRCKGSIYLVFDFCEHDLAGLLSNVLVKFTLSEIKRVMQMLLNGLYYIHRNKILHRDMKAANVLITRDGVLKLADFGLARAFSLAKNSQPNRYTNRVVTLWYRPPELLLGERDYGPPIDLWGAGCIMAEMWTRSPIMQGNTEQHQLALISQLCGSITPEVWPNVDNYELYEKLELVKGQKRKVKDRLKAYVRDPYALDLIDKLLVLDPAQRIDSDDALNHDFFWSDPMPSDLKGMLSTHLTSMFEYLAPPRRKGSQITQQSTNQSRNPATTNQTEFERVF
T1 sequence (O60563 whole entry partner): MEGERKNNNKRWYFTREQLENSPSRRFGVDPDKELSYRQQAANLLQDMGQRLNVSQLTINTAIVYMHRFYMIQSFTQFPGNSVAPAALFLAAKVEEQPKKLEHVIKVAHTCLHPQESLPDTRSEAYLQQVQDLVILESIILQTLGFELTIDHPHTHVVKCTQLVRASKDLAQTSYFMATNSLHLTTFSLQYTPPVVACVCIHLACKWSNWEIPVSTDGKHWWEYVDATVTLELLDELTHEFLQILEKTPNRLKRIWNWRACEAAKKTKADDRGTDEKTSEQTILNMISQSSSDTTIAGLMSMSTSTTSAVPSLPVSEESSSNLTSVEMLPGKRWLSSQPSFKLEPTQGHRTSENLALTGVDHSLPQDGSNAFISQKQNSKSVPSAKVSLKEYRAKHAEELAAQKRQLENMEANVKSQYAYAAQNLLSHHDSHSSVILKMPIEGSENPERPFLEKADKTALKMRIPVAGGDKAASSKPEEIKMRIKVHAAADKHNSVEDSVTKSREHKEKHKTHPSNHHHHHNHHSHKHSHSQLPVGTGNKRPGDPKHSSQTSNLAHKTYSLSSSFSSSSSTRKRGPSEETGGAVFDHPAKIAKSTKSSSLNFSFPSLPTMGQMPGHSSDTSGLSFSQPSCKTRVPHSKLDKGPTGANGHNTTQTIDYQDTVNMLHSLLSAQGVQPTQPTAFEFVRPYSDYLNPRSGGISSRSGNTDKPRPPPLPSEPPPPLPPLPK
Method: A similar experimental procedure is performed when the resulting activity within ^33PanQinase® assay is done. In advance buffers are prepared but in this case the pipetting sequence is first ATP solution diluted with assay buffer, DMSO or compound solution. The reaction (1 h at 30° C.) is started by addition of a substrate-kinase mix. During the incubation the kinase phosphorylates the substrate (different for each kinase). Due to the fact that the ATP solution contains ^33P labelled ATP the substrate proteins are labeled with ^33P. The reaction is stopped by addition of excess H3PO4. If the reaction is performed in plates binding substrate proteins, said plates are washed to reduce unspecific signals (mainly not used ATP). The incorporation of ^33P into substarte proteins is a direct measure of activity of the respective kinase. Therefore, the incorporated radioactivity is detected by scintillation counting. Data is evaluated, processed and analyzed as described for the LANCE assays.
A radiometric protein kinase assay (33PanQinase® Activity Assay) was used for measuring the kinase activity of the […] protein kinases. […]
The reaction cocktails were incubated at 30° C. for 60 minutes. […] Incorporation of 33Pi (counting of “cpm”) was determined with a microplate scintillation counter (Microbeta, Wallac).

| Compound | proliferation inhibition in mutated, sensitive cell lines compared with wild type cell lines (in words) [1] | effect on proliferation of HCC2429 cells (in words) [2] | inhibition of CDK9 kinase activity, residual activity (in words) [3] | IC50 ([2]; 72 h incubation, ATP content/proliferation by CTG, 30 to 0.0137 μM) |
| --- | --- | --- | --- | --- |
| COc1ccccc1-c1cc(Nc2cccc(CS(N)(=O)=O)c2)ncn1 [1073485-20-7P, 3-[[6-(2-methoxyphenyl)-4-pyrimidinyl]amino]-Benzenemethanesulfonamide] | much more potent in mutated, sensitive cell lines | – | – | – |
| COc1ccccc1-c1ncnc(Nc2cccc(CS(N)(=O)=O)c2)n1 [Cpd B1, 3-[(4-(2-Methoxyphenyl)-1,3,5-triazin-2-yl)amino] benzenemethanesulfonamide] | – | potently affected proliferation of HCC2429 cells | inhibits only CDK9 with high potency | – |
| O=C1NC(=NCc2cccs2)S/C1=C\c1ccc2ncccc2c1 [Ro-3306] | – | did not show comparable effects | – | > 10 µM |
